{
  "source": "paper PMC6651341",
  "about": "“EDB-FN Targeted Peptide–Drug Conjugates for Use against Prostate Cancer” (International Journal of Molecular Sciences, 2019)",
  "key": {"[1]": {"tested_on": "RWPE-1 normal human prostate epithelial cells", "experiment": "MTS cell viability assay, RWPE-1", "format": "cell-based", "conditions": "5 µM, after 72 h, triplicate", "from_the_text": "(§1) Human epithelial prostate cell line (RWPE-1, ATCC No. CRL-11610), human prostate cancer cell line (Human prostate carcinoma DU-145, ATCC No. HTB-81), human adenocarcinoma PC3, ATCC No. CRL-1435), androgen-sensitive human prostate adenocarcinoma cells (LNCaP, ATCC No. CRL-1740), and castration-resistant LNCaP-derived C4-2 (ATCC No. CRL-1595) were purchased from American Type Culture Collection (ATCC), Manassas, VA, USA. All the media, serum, and antibiotics were bought from American Type Culture Collection (ATCC) (Manassas, VA, USA) and Sigma life-science (St. Louis, MO, USA). Keratinocytes SFM (1×) with EGF + BPE was bought from Gibco life technologies (Thermo Fisher Scientific), Gaithersburg, MD, USA. CellTiter 96 was bought from Promega, Madison, WI, USA. […]\n(§2) Cell-proliferation assay using MTS reagent was conducted against five cell lines (RWPE-1, PC3, DU-145, LNCaP, and, C4-2). […] The absorbance was obtained at 490 nm using SpectraMax M2 microplate reader to detect the formazan product. […] The percentage of cell viability was calculated by [(OD value of cells treated with the test mixture of compounds) − (OD value of culture medium)] / [(OD value of control cells) − (OD value of culture medium)] × 100%. […] Cell viability was determined by measuring the absorbance at 490 nm using SpectraMax M2 microplate spectrophotometer, as mentioned above."}, "LNCaP": {"tested_on": "LNCaP", "experiment": "MTS cell viability assay, LNCaP", "format": "cell-based, human", "conditions": "5 µM, after 72 h, triplicate", "from_the_text": "as §1, §2"}, "DU-145": {"tested_on": "DU-145", "experiment": "MTS cell viability assay, DU-145", "format": "cell-based, human", "conditions": "5 µM, after 72 h, triplicate", "from_the_text": "as §1, §2"}, "C4-2": {"tested_on": "C4-2", "experiment": "MTS cell viability assay, C4-2 without TGF-β", "format": "cell-based, human", "conditions": "5 µM, after 72 h, triplicate", "from_the_text": "(§3) Human epithelial prostate cell line (RWPE-1, ATCC No. CRL-11610), human prostate cancer cell line (Human prostate carcinoma DU-145, ATCC No. HTB-81), human adenocarcinoma PC3, ATCC No. CRL-1435), androgen-sensitive human prostate adenocarcinoma cells (LNCaP, ATCC No. CRL-1740), and castration-resistant LNCaP-derived C4-2 (ATCC No. CRL-1595) were purchased from American Type Culture Collection (ATCC), Manassas, VA, USA. All the media, serum, and antibiotics were bought from American Type Culture Collection (ATCC) (Manassas, VA, USA) and Sigma life-science (St. Louis, MO, USA). Keratinocytes SFM (1×) with EGF + BPE was bought from Gibco life technologies (Thermo Fisher Scientific), Gaithersburg, MD, USA. CellTiter 96 was bought from Promega, Madison, WI, USA. Dithiothreitol (DTT) was bought from Thermo Fisher scientific, Carlsbad, CA, USA, and TGF-β was bought from Abcam, Boston, MA, USA.\n(§4) Cell-proliferation assay using MTS reagent was conducted against five cell lines (RWPE-1, PC3, DU-145, LNCaP, and, C4-2). Cells were seeded into 96-well plates (5 × 10^3 cells for all the cells) and incubated with 100 µL of complete medium (RPMI-1640 for RWPE-1, DU-145, LNCaP, and C4-2; DMEM for PC3) overnight at 37 °C with 5% CO2. Various concentrations (0, 0.06, 0.6, 6, 60, 600 μM) of the peptide solution (20 μL) were added to cells to yield the final concentrations of peptide (0, 0.01, 0.1, 1, 10, 100 μM). The cells were kept in an incubator (37 °C, 5% CO2) for 24, 48, or 72 h accordingly for different treatment time responses. […] The absorbance was obtained at 490 nm using SpectraMax M2 microplate reader to detect the formazan product. […] The percentage of cell viability was calculated by [(OD value of cells treated with the test mixture of compounds) − (OD value of culture medium)] / [(OD value of control cells) − (OD value of culture medium)] × 100%. […] Cell viability was determined by measuring the absorbance at 490 nm using SpectraMax M2 microplate spectrophotometer, as mentioned above."}, "PC3": {"tested_on": "PC3", "experiment": "MTS cell viability assay, PC3", "format": "cell-based, human", "conditions": "5 µM, after 72 h, MTS, triplicate", "from_the_text": "as §3, §4"}, "EDB-FN": {"tested_on": "EDB-FN", "experiment": "Confocal microscopy of FAM-tagged peptides, binding to EDB-FN", "format": "cell-based, human", "conditions": "C4-2 cells, 5 μg FAM-peptide, 12 h, confocal 60×", "experimental": "Prostate cancer cell line (C4-2) was grown in RPMI medium containing 10% fetal bovine serum and 1% penicillin/streptomycin at the 37 °C in a 5% CO2 incubator. The culture medium was changed every 2–3 days until confluency was reached to 80%. Each cells group was treated with 5 μg of fluorescence-tagged peptides (17 and 18) for 12 h. A set of control groups was also prepared, which was not treated with peptides. Then all cells were fixed with 4% paraformaldehyde for 10 min and washed for 10 min (3 times with PBS). The cells were blocked in 1% FBS/PBS for 10 min and washed for 10 min (3 times with PBS). To target EDB-FN on the cell surface, the cells were incubated with a mouse monoclonal anti-fibronectin antibody (Abcam, Cambridge, MA, USA) (1:1000 dilution using 1% FBS/PBS) overnight at the 4 °C. The cells were washed for 10 min (3 times with PBS), and a Texas red-conjugated anti-mouse secondary antibody was used in 1% FBS/PBS (5:1000 dilution) at the room temperature for 1 h. Then cells were washed for 10 min (3 times with PBS), and at the end, nuclei were stained using DAPI and covered with coverslips. Representative images of cells were captured using a standard confocal microscope (Nikon Eclipse Ti-E, Nikon Instruments Inc., Melville, NY, USA) at 60× magnification, and the images were processed for binary contrast quantification."}},
  "note": "Where a SMILES comes first, the peptide text is derived from it. Bridges are numbered along the chain shown (N, C = ends). [ ]: non-standard residue; d: D form. Ahx = NCCCCCC(=O)O",
  "data": [
    {"molecule": "CC(C)C[C@H](NC(=O)[C@H](Cc1ccccc1)NC(=O)CNC(=O)[C@@H](N)CS)C(=O)NCC(=O)NCCCCCC(=O)N[C@H]1CCCCNC(=O)CC[C@@H](C(N)=O)NC(=O)[C@H](CC(=O)O)NC(=O)[C@H](C)NC(=O)[C@H](CO)NC(=O)[C@H]([C@@H](C)O)NC(=O)[C@H](CCCNC(=N)N)NC(=O)[C@H](C(C)C)NC(=O)[C@H]([C@@H](C)O)NC1=O", "note": "[compound 9] (H-CGFLG[Ahx]KTVRTSADE-NH2; lactam 7-15)", "values": [
      {"measurement": "cytotoxicity", "setting": "[1]", "result": "did not show any significant cytotoxicity"},
      {"measurement": "cytotoxicity", "setting": "LNCaP", "result": "did not show any significant cytotoxicity"},
      {"measurement": "cytotoxicity", "setting": "DU-145", "result": "did not show any significant cytotoxicity"},
      {"measurement": "cytotoxicity", "setting": "C4-2", "result": "did not show any significant cytotoxicity"},
      {"measurement": "cytotoxicity", "setting": "PC3", "result": "did not show any significant cytotoxicity"}
    ]},
    {"molecule": "FAM-GFLG-C6-[KTVRTSADE] (sidechain bridge or staple) [compound 18]", "values": [
      {"measurement": "increase in the peptide-stained area compared to peptide 17 (binary contrast quantification)", "setting": "EDB-FN", "result": 48, "unit": "%"}
    ]}
  ]
}
